Data on 19 molecules can be found in BindingDB's records for patent WO2022076764 (BRISTOL-MYERS SQUIBB COMPANY, 2022).

Assay [1] concerns the target T1, N-formyl peptide receptor 2 (Homo sapiens, UniProt P25090).
T1 sequence (P25090 whole entry): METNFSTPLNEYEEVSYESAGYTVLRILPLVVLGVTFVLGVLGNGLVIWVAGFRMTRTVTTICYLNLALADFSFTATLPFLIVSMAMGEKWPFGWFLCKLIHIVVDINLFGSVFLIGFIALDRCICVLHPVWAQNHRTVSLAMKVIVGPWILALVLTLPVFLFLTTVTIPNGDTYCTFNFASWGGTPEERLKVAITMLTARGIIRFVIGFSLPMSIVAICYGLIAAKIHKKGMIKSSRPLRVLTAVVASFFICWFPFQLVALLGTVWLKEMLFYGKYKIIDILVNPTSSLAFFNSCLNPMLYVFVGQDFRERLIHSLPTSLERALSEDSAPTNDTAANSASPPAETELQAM

Assay [2] deals with T2, fMet-Leu-Phe receptor (Homo sapiens, UniProt P21462).
T2 sequence (P21462 whole entry): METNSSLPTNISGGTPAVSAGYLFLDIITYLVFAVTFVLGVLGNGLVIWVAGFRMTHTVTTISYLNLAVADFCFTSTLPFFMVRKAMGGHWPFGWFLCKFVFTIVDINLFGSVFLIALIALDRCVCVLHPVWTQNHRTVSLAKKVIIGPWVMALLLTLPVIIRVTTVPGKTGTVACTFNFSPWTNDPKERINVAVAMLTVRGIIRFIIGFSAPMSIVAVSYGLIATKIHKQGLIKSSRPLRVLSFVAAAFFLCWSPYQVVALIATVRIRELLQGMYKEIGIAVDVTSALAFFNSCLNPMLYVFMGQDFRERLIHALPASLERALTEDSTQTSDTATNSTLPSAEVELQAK

The structures appear in SMILES notation. pEC50: −log10 of the molar value.

For the molecule `COc1ccc(-n2cc(C(=O)N3CCNCC3)nc2NC(=O)c2ccc(OC(F)F)cc2)cc1` [WO2022076764, Example 45], the pEC50 – broadly, the EC50 on a negative log10 scale, so that one unit is a factor of ten – in assay [1] is 6.15; in assay [2], 7.85.

For the molecule `COc1ccc(-n2cc(C(=O)NCCCO)nc2NC(=O)c2ccc(OC(F)F)cc2)cc1` [WO2022076764, Example 46], the pEC50 in assay [1] is 6.68; in assay [2] it was 7.57.

Turning to `COc1cc(F)c(-n2cc(C(=O)NCc3cccnc3)nc2NC(=O)c2ccc(OC(F)F)cc2)c(F)c1` [WO2022076764, Example 47], the values for the pEC50 in assay [1] and in assay [2] were 6.96 and 7.46, respectively.

For the molecule `COc1cc(F)c(-n2cc(C(=O)NCc3ccncc3)nc2NC(=O)c2ccc(OC(F)F)cc2)c(F)c1` [WO2022076764, Example 48], the pEC50 is 6.22 in assay [1] and 6.96 in assay [2].

As to `COc1cc(F)c(-n2cc(C(=O)NCC3CCC(O)CC3)nc2NC(=O)c2ccc(OC(F)F)cc2)c(F)c1` (stereo not drawn) [WO2022076764, Example 49], the pEC50 in assay [1] is 6.12; in assay [2], 7.05.

On to `COc1cc(F)c(-n2cc(C(=O)N3CCC[C@H]3CO)nc2NC(=O)c2ccc(OC(F)F)cc2)c(F)c1` [WO2022076764, Example 50], for which the values for the pEC50 in assay [1] and in assay [2] were < 5.00 and 7.11, respectively.

With `COc1cc(F)c(-n2cc(C(=O)N3CCCC(O)C3)nc2NC(=O)c2ccc(OC(F)F)cc2)c(F)c1` (stereo not drawn) [WO2022076764, Example 51], the figures for the negative-log EC50 (pEC50) in assay [1] and in assay [2] were 5.54 and 7.08, respectively.

Consider `COc1cc(F)c(-n2cc(C(=O)N3CCC(O)CC3)nc2NC(=O)c2ccc(OC(F)F)cc2)c(F)c1` [WO2022076764, Example 52], for which the pEC50 in assay [1] is < 5.00; in assay [2], 7.20.

Turning to `COc1cc(F)c(-n2cc(C(=O)NCCO)nc2NC(=O)c2ccc(OC(F)F)cc2)c(F)c1` [WO2022076764, Example 53], the pEC50 in assay [1] was 5.39; in assay [2], 6.89.

On to `COc1cc(F)c(-n2cc(C(=O)N3CCOCC3)nc2NC(=O)c2ccc(OC(F)F)cc2)c(F)c1` [WO2022076764, Example 54], for which the pEC50 in assay [1] was < 5.00; in assay [2], 6.49.

As to `COc1cc(F)c(-n2cc(C(=O)N3CCN(C)CC3)nc2NC(=O)c2ccc(OC(F)F)cc2)c(F)c1` [WO2022076764, Example 55], the pEC50 in assay [1] was < 5.00; in assay [2], 6.55.

Turning to `COc1cc(F)c(-n2cc(C(=O)NCc3cnc(C)cn3)nc2NC(=O)c2ccc(OC(F)F)cc2)c(F)c1` [WO2022076764, Example 56], the pEC50 was 6.96 in assay [1] and 7.05 in assay [2].

For the molecule `COc1cc(F)c(-n2cc(C(=O)N3CC[C@H](O)C3)nc2NC(=O)c2ccc(OC(F)F)cc2)c(F)c1` [WO2022076764, Example 57], the pEC50 in assay [1] was 5.72; in assay [2], 6.92.

As to `COc1cc(F)c(-n2cc(C(=O)N3CCNC(=O)C3)nc2NC(=O)c2ccc(OC(F)F)cc2)c(F)c1` [WO2022076764, Example 58], the pEC50 in assay [1] is 5.47; in assay [2], 6.77.

With `COc1cc(F)c(-n2cc(C(=O)N3CCC(CO)C3)nc2NC(=O)c2ccc(OC(F)F)cc2)c(F)c1` (stereo not drawn) [WO2022076764, Example 59], the pEC50 in assay [1] was 5.66; in assay [2] it was 7.09.

With `COc1cc(F)c(-n2cc(C(=O)NCCCO)nc2NC(=O)c2ccc(OC(F)F)cc2)c(F)c1` [WO2022076764, Example 60], the pEC50 in assay [1] was 5.85; in assay [2], 7.25.

On to `COc1cc(F)c(-n2cc(C(=O)N3CCNCC3)nc2NC(=O)c2ccc(OC(F)F)cc2)c(F)c1` [WO2022076764, Example 61], for which the results for the pEC50 in assay [1] and in assay [2] were < 5.00 and 6.89, respectively.

Take `COc1cc(F)c(-n2cc(C(=O)Nc3cn[nH]c3)nc2NC(=O)c2ccc(OC(F)F)cc2)c(F)c1` [WO2022076764, Example 62]: the pEC50 in assay [1] was 6.08; in assay [2], 7.49.

On to `COc1cc(F)c(-n2cc(C3CCNCC3)nc2NC(=O)c2ccc(OC(F)F)cc2)c(F)c1` [WO2022076764, Example 63], for which the pEC50 in assay [1] was 6.15; in assay [2], 8.00.
